{"source": "patent US9802899B2", "about": "“Heterocyclic compounds as pesticides” (BAYER CROPSCIENCE AG, priority 2012, dated 2017)", "data": [{"experiment": "Determination of the log P values by HPLC (formic acid method)", "assay_type": "physicochemical", "settings": "reversed-phase HPLC column (C 18), reversed-phase column (C 18), acidic range (pH 3.4), 55° C.", "experimental": "(§1) 1) Description of Method for Determination of the Log P Values (Formic Acid Method)\n(§2) Eluents for determination in the acidic range (pH 3.4):\n(§3) Eluent A: acetonitrile+1 ml of formic acid/liter. Eluent B: water+0.9 ml of formic acid/liter.\n(§4) The lambda max values were determined in the maxima of the chromatographic signals using the UV spectra from 200 nm to 400 nm.", "values": [{"smiles": "Cc1cccc(C)c1-n1ccc(N)n1", "note": "[1-(2,6-Dimethylphenyl)-1H-pyrazole-3-amine]", "chromatographic logP": 0.62}, {"smiles": "CCOc1c(F)cccc1-n1ccc(N)n1", "note": "[1-(2-ethoxy-3-fluorophenyl)-1H-pyrazole-3-amine]", "chromatographic logP": 2.04}, {"smiles": "O=C(Nc1nn(-c2ncc(F)cc2F)c2ccc(F)cc12)c1ccccc1C(F)(F)F", "note": "[Compound I-5-2, N-[1-(3,5-Difluoropyridin-2-yl)-5-fluoro-1H-indazol-3-yl]-2-(trifluoromethyl)benzamide]", "chromatographic logP": 3.37}, {"smiles": "Nc1nn(-c2ccccc2Cl)c2ccccc12", "note": "[1-(2-Chlorophenyl)-1H-indazole-3-amine]", "chromatographic logP": 2.32}, {"smiles": "O=C(Nc1cnn(-c2ncc(F)cc2F)n1)c1ccccc1C(F)(F)F", "note": "[Compound I-2-63, N-[2-(3,5-Difluoropyridin-2-yl)-2H-1,2,3-triazol-4-yl]-2-(trifluoromethyl)benzamide]", "chromatographic logP": 2.38}, {"smiles": "Nc1ccn(-c2nc(F)c(F)cc2F)n1", "note": "[1-(3,5,6-Trifluoropyridin-2-yl)-1H-pyrazole-3-amine]", "chromatographic logP": 1.15}, {"smiles": "Nc1cnn(-c2ncc(Cl)cc2Cl)n1", "note": "[2-(3,5-Dichloropyridin-2-yl)-2H-1,2,3-triazole-4-amine]", "chromatographic logP": 1.38}, {"smiles": "Nc1ccn(-c2c(Cl)cccc2Cl)n1", "note": "[1-(2,6-Dichlorophenyl)-1H-pyrazole-3-amine]", "chromatographic logP": 1.47}]}, {"experiment": "Determination of the log P values by HPLC (formic acid method)", "assay_type": "physicochemical", "settings": "reversed-phase column (C 18), acidic range (pH 3.4), 55° C.", "experimental": "as §1, §2, §3, §4", "values": [{"smiles": "Cc1cn(-c2ccccc2Cl)nc1NC(=O)c1cccnc1Br", "note": "[Compound I-1-357]", "log P": 2.23}, {"smiles": "Cn1nc(C(F)(F)F)c(C#N)c1C(=O)Nc1ccn(-c2c(F)cccc2F)n1", "note": "[Compound I-1-318]", "log P": 2.98}, {"smiles": "O=C(Nc1ccn(-c2cc(F)c(F)cc2F)n1)c1ccccc1Br", "note": "[Compound I-1-194]", "log P": 3.99}, {"smiles": "O=C(Nc1ccn(-c2c(F)cccc2F)n1)c1ccccc1C1CC1", "note": "[Compound I-1-273]", "log P": 2.89}, {"smiles": "O=C(Nc1ccn(-c2c(F)cccc2F)n1)c1c(F)cccc1F", "note": "[Compound I-1-84]", "log P": 2.42}, {"smiles": "Cc1cccc(C)c1C(=O)Nc1ccn(-c2ccccc2Cl)n1", "note": "[Compound I-1-353]", "log P": 2.97}, {"smiles": "O=C(Nc1cnn(-c2ncccc2Cl)n1)c1cccnc1Cl", "note": "[Compound I-2-56]", "log P": 1.66}, {"smiles": "Cn1ncc(I)c1C(=O)Nc1ccn(-c2c(F)cccc2F)n1", "note": "[Compound I-1-324]", "log P": 2.46}, {"smiles": "O=C(Nc1ccn(-c2ccccc2Br)n1)c1cccnc1C(F)(F)F", "note": "[Compound I-1-56]", "log P": 2.54}, {"smiles": "O=C(Nc1cnn(-c2cc(F)cnc2F)n1)c1ccccc1C(F)(F)F", "note": "[Compound I-2-62]", "log P": 2.77}, {"smiles": "CC(=O)c1ccccc1C(=O)Nc1ccn(-c2c(F)cccc2F)n1", "note": "[Compound I-1-270]", "log P": 2.38}, {"smiles": "N#Cc1ccccc1-n1ccc(NC(=O)c2ccccc2I)n1", "note": "[Compound I-1-394]", "log P": 2.53}, {"smiles": "Cn1nc(C(C)(C)C)c(Cl)c1C(=O)Nc1ccn(-c2c(F)cccc2F)n1", "note": "[Compound I-1-293]", "log P": 4.15}, {"smiles": "O=C(Nc1ccn(-c2cc(F)c(F)cc2F)n1)c1ccccc1Cl", "note": "[Compound I-1-195]", "log P": 3.94}, {"smiles": "CCN(C(=O)c1ccccc1C(F)(F)F)c1ccn(-c2ncc(F)cc2F)n1", "note": "[Compound I-1-468]", "log P": 3.23}, {"smiles": "Cc1nn(-c2ccccc2Cl)nc1NC(=O)c1ccccc1C(F)(F)F", "note": "[Compound I-2-21]", "log P": 2.93}, {"smiles": "O=C(Nc1ccn(-c2ccccc2Cl)n1)c1ccccc1F", "note": "[Compound I-1-19]", "log P": 2.89}, {"smiles": "O=C(Nc1ccn(-c2ccccc2Cl)n1)c1cnccc1Cl", "note": "[Compound I-1-381]", "log P": 2.19}, {"smiles": "O=C(Nc1ccn(-c2cccc(Cl)c2Cl)n1)c1ccccc1Cl", "note": "[Compound I-1-188]", "log P": 3.38}, {"smiles": "O=C(Nc1ccn(-c2ccccc2Cl)n1)c1nccnc1C(F)(F)F", "note": "[Compound I-1-44]", "log P": 2.74}, {"smiles": "CCCc1c(Cl)c(C(=O)Nc2ccn(-c3ncc(F)cc3F)n2)nn1C", "note": "[Compound I-1-532]", "log P": 3.09}, {"smiles": "O=C(Nc1ccn(-c2ccccc2C(F)(F)F)n1)c1ccccc1C(F)(F)F", "note": "[Compound I-1-6]", "log P": 2.75}, {"smiles": "Cc1nn(C)cc1C(=O)Nc1ccn(-c2c(F)cccc2F)n1", "note": "[Compound I-1-107]", "log P": 1.71}, {"smiles": "O=C(Nc1ccn(-c2ncc(F)cn2)n1)c1ccccc1Cl", "note": "[Compound I-1-604]", "log P": 1.91}, {"smiles": "Cc1nn(C)c(C(=O)Nc2ccn(-c3c(F)cccc3F)n2)c1Cl", "note": "[Compound I-1-307]", "log P": 2.78}, {"smiles": "CSc1ncccc1C(=O)Nc1ccn(-c2c(F)cccc2F)n1", "note": "[Compound I-1-249]", "log P": 2.38}, {"smiles": "Cc1cccnc1C(=O)Nc1ccn(-c2c(F)cccc2F)n1", "note": "[Compound I-1-90]", "log P": 2.86}, {"smiles": "CCc1nn(C)c(C(=O)Nc2ccn(-c3ncc(F)cc3F)n2)c1Cl", "note": "[Compound I-1-534]", "log P": 2.98}, {"smiles": "CCc1nccnc1C(=O)Nc1ccn(-c2ncc(F)cc2F)n1", "note": "[Compound I-1-489]", "log P": 2.42}, {"smiles": "CS(=O)(=O)c1ccccc1-n1ccc(NC(=O)c2c(F)cccc2F)n1", "note": "[Compound I-1-181]", "log P": 1.86}, {"smiles": "COc1ccccc1-n1ccc(NC(=O)c2cccnc2C(F)(F)F)n1", "note": "[Compound I-1-407]", "log P": 2.37}, {"smiles": "CC(=O)Nc1ccn(-c2c(F)cccc2F)n1", "note": "[N-[1-(2,6-Difluorophenyl)-1H-pyrazol-3-yl]acetamide]", "chromatographic logP": 1.33}, {"smiles": "O=C(Nc1nn(-c2ccccc2Br)nc1Cl)c1ccccc1C(F)(F)F", "note": "[Compound I-2-26]", "log P": 3.22}, {"smiles": "O=C(Nc1ccn(-c2c(F)cccc2F)n1)c1ccccc1OC(F)F", "note": "[Compound I-1-247]", "log P": 2.74}, {"smiles": "O=C(NC1=NN(c2c(F)cccc2F)CC1)c1ccccc1C(F)(F)F", "note": "[Compound I-4-7]", "log P": 2.34}, {"smiles": "Cc1nc(C(F)(F)F)c(C(=O)Nc2ccn(-c3ccccc3Cl)n2)s1", "note": "[Compound I-1-371]", "log P": 2.88}, {"smiles": "O=C(Nc1ccn(-c2c(F)cccc2F)n1)c1cscc1Br", "note": "[Compound I-1-305]", "log P": 2.61}, {"smiles": "O=C(Nc1ccn(-c2ccc(Cl)cc2Cl)n1)c1ccccc1C(F)(F)F", "note": "[Compound I-1-198]", "log P": 3.25}, {"smiles": "O=C(Nc1ccn(-c2cnc(Cl)cn2)n1)c1c(F)cccc1F", "note": "[Compound I-1-387]", "log P": 2.67}, {"smiles": "Cn1ncnc1C(=O)Nc1ccn(-c2c(F)cccc2F)n1", "note": "[Compound I-1-236]", "log P": 1.93}, {"smiles": "O=C(Nc1ccn(-c2ccccc2Br)n1)c1ccccc1Br", "note": "[Compound I-1-52]", "log P": 2.86}, {"smiles": "Cc1cccc(C)c1C(=O)Nc1ccn(-c2c(F)cccc2F)n1", "note": "[Compound I-1-268]", "log P": 2.68}, {"smiles": "Cc1cc(NC(=O)c2ncccc2C(F)(F)F)nn1-c1ccccc1Cl", "note": "[Compound I-1-376]", "log P": 2.57}, {"smiles": "O=C(Nc1ccn(-c2ccccc2C(F)(F)F)n1)c1ccccc1Cl", "note": "[Compound I-1-4]", "log P": 2.92}, {"smiles": "O=C(Nc1nn(-c2ncc(F)cc2F)cc1F)c1ccccc1C(F)(F)F", "note": "[Compound I-1-465]", "log P": 2.44}, {"smiles": "CN(C(=O)c1ccccc1C(F)(F)F)c1ccn(-c2c(F)cccc2F)n1", "note": "[Compound I-1-253]", "log P": 3.08}, {"smiles": "O=C(Nc1cnn(-c2ncc(C(F)(F)F)cc2Cl)n1)c1ccccc1C(F)(F)F", "note": "[Compound I-2-74]", "log P": 3.28}, {"smiles": "O=C(Nc1ccn(-c2ncc(F)cn2)n1)c1ccccc1C(F)(F)F", "note": "[Compound I-1-600]", "log P": 2.13}, {"smiles": "Cn1nc(C(F)F)c(C(=O)Nc2ccn(-c3ncc(F)cc3F)n2)c1F", "note": "[Compound I-1-500]", "log P": 2.06}, {"smiles": "Cn1nc([N+](=O)[O-])c(Cl)c1C(=O)Nc1ccn(-c2c(F)cccc2F)n1", "note": "[Compound I-1-312]", "log P": 2.70}]}]}
